Data reported in patent publication US11000033B2, “Ketone or oxime compound, and herbicide” (NISSAN CHEMICAL CORPORATION, priority 2014, dated 2021).

What was measured:
Format in all cases: in vivo
[1] = tested on: Galium spurium; assay: Test Example 5: herbicidal effect by foliage application, plastic box (symbol Q); details: 320 g/ha, 3 weeks after application
Outline: (§1)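 After sowing into sterilized diluvial soil and growing two weeks under glass at 25° C. to 30° C., seedlings receive a uniform foliar spray of diluted emulsion. Damage is judged visually three weeks on.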

[2] = tested on: Stellaria media; assay: Test Example 4: herbicidal effect by soil treatment (symbol P); details: application herbicide amount 320 g/ha
Outline: (§2)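 Seeds were sown in sterilized diluvial soil, covered with about 1.5 cm of soil, and the soil surface was sprayed with a water-diluted emulsion of the compound at a predetermined rate. Plants grew in a greenhouse at 25° C. to 30° C.; effects were scored visually 3 weeks after application.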

[3] = tested on: wheat; assay: Test Example 5: effect on crop by foliage application, plastic box (symbol e); details: 320 g/ha, 3 weeks after application
Outline: (§3)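 A greenhouse held between 25° C. and 30° C. was used to grow plants sown spot-wise, beneath ~1.5 cm of soil, in boxes of sterilized diluvial soil.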

[4] = tested on: Echinochloa crus-galli var. crus-galli; assay: Test Example 5: herbicidal effect by foliage application, plastic box (symbol H); details: 320 g/ha, 3 weeks after application
Outline: as §1

[5] = tested on: Amaranthus retroflexus; assay: Test Example 5: herbicidal effect by foliage application, plastic box (symbol N); details: 320 g/ha, 3 weeks after application
Outline: as §1

[6] = tested on: soybean; assay: Test Example 4: effect on crop by soil treatment (symbol d); details: application herbicide amount 320 g/ha
Outline: (§4)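 Greenhouse culture at 25° C. to 30° C. followed sowing of seed in spots on sterilized diluvial soil with a soil cover close to 1.5 cm thick.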

[7] = tested on: Galium spurium; assay: Test Example 4: herbicidal effect by soil treatment (symbol Q); details: application herbicide amount 320 g/ha
Outline: as §2

[8] = tested on: Setaria viridis; assay: Test Example 5: herbicidal effect by foliage application, plastic box (symbol G); details: 320 g/ha, 3 weeks after application
Outline: as §1

[9] = tested on: Amaranthus retroflexus; assay: Test Example 4: herbicidal effect by soil treatment (symbol N); details: application herbicide amount 320 g/ha
Outline: as §2

[10] = tested on: Alopecurus myosuroides; assay: Test Example 4: herbicidal effect by soil treatment (symbol J); details: application herbicide amount 320 g/ha
Outline: as §2

[11] = tested on: Digitaria ciliaris; assay: Test Example 5: herbicidal effect by foliage application, plastic box (symbol F); details: 320 g/ha, 3 weeks after application
Outline: as §1

[12] = tested on: wheat; assay: Test Example 4: effect on crop by soil treatment (symbol e); details: application herbicide amount 320 g/ha
Outline: as §4

[13] = tested on: Alopecurus myosuroides; assay: Test Example 5: herbicidal effect by foliage application, plastic box (symbol J); details: 320 g/ha, 3 weeks after application
Outline: as §1

[14] = tested on: Scirpus juncoides; assay: Test Example 1: herbicidal activity, application before weed generation in submerged conditions (symbol B); details: application herbicide amount 320 g/ha
Outline: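 Scores run 0 to 5 by herbicidal ratio, with 5 meaning 90% or more and 0 meaning 5% or lower, read 3 weeks after treatment. Compound was applied as a diluted emulsion to the water surface of submerged alluvial-soil pots on the day weed seeds were sown.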

[15] = tested on: Setaria viridis; assay: Test Example 4: herbicidal effect by soil treatment (symbol G); details: application herbicide amount 320 g/ha
Outline: as §2

[16] = tested on: rice; assay: Test Example 4: effect on crop by soil treatment (symbol b); details: application herbicide amount 320 g/ha
Outline: as §4

[17] = tested on: soybean; assay: Test Example 5: effect on crop by foliage application, plastic box (symbol d); details: 320 g/ha, 3 weeks after application
Outline: as §3

[18] = tested on: Avena fatua; assay: Test Example 4: herbicidal effect by soil treatment (symbol I); details: application herbicide amount 320 g/ha
Outline: as §2

[19] = tested on: rice plant; assay: Test Example 5: effect on crop by foliage application, plastic box (symbol b); details: 320 g/ha, 3 weeks after application
Outline: as §3

[20] = tested on: Lolium multiflorum Lam.; assay: Test Example 4: herbicidal effect by soil treatment (symbol K); details: application herbicide amount 320 g/ha
Outline: as §2

[21] = tested on: Abutilon theophrasti; assay: Test Example 4: herbicidal effect by soil treatment (symbol M); details: application herbicide amount 320 g/ha
Outline: as §2

[22] = tested on: corn; assay: Test Example 4: effect on crop by soil treatment (symbol c); details: application herbicide amount 320 g/ha
Outline: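 Steps: fill box with sterilized diluvial soil; sow seed spot-like; cover with ~1.5 cm soil; grow in greenhouse (25° C. to 30° C.).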

SMILES | Q: Galium spurium, herbicidal effect (criteria of Test Example 1) [1] | Herbicidal effect grade, P: Stellaria media [2] | e: wheat, effect on crop (criteria of Test Example 1) [3] | H: Echinochloa crus-galli var. crus-galli, herbicidal effect (criteria of Test Example 1) [4] | N: Amaranthus retroflexus, herbicidal effect (criteria of Test Example 1) [5] | Effect on crop grade, d: soybean [6] | Herbicidal effect grade, Q: Galium spurium [7] | G: Setaria viridis, herbicidal effect (criteria of Test Example 1) [8] | Herbicidal effect grade, N: Amaranthus retroflexus [9] | Herbicidal effect grade, J: Alopecurus myosuroides [10] | F: Digitaria ciliaris, herbicidal effect (criteria of Test Example 1) [11] | Effect on crop grade, e: wheat [12] | J: Alopecurus myosuroides, herbicidal effect (criteria of Test Example 1) [13] | Herbicidal effect grade, B: Scirpus juncoides [14] | Herbicidal effect grade, G: Setaria viridis [15] | Effect on crop grade, b: directly sowed rice plant [16] | d: soybean, effect on crop (criteria of Test Example 1) [17] | Herbicidal effect grade, I: Avena fatua [18] | b: directly sowed rice plant, effect on crop (criteria of Test Example 1) [19] | Herbicidal effect grade, K: Lolium multiflorum Lam. [20] | other results
CON=C(C)CC1CC(O)=C(c2c(C)cc(-c3ccc(Cl)cc3Cl)cc2C)C1=O (stereo not drawn) [6-088] | 4 (Herbicidal ratio of 70% or higher and lower than 90%) | 5 (Herbicidal ratio of 90% or more (almost completely withered)) | 4 (Herbicidal ratio of 70% or higher and lower than 90%) | 5 (Herbicidal ratio of 90% or more (almost completely withered)) | 0 (Herbicidal ratio of 5% or lower (almost no effect)) | 5 (Herbicidal ratio of 90% or more (almost completely withered)) | 4 (Herbicidal ratio of 70% or higher and lower than 90%) | 5 (Herbicidal ratio of 90% or more (almost completely withered)) | 0 (Herbicidal ratio of 5% or lower (almost no effect)) | 5 (Herbicidal ratio of 90% or more (almost completely withered)) | 5 (Herbicidal ratio of 90% or more (almost completely withered)) | 0 (Herbicidal ratio of 5% or lower (almost no effect)) | 5 (Herbicidal ratio of 90% or more (almost completely withered)) | 1 (Herbicidal ratio of 5% or higher and lower than 20%) | 5 (Herbicidal ratio of 90% or more (almost completely withered)) | 0 (Herbicidal ratio of 5% or lower (almost no effect)) | 5 (Herbicidal ratio of 90% or more (almost completely withered)) | 5 (Herbicidal ratio of 90% or more (almost completely withered)) | 5 (Herbicidal ratio of 90% or more (almost completely withered)) | 5 (Herbicidal ratio of 90% or more (almost completely withered)) | Herbicidal effect grade, M: Abutilon theophrasti [21]: 3 (Herbicidal ratio of 40% or higher and lower than 70%); Effect on crop grade, c: corn [22]: 0 (Herbicidal ratio of 5% or lower (almost no effect))
CON=C(C)CC1CC(OC(=O)COc2ccccc2)=C(c2c(C)cc(C)cc2OC)C1=O (stereo not drawn) [6-091] | 3 (Herbicidal ratio of 40% or higher and lower than 70%) | 4 (Herbicidal ratio of 70% or higher and lower than 90%) | 5 (Herbicidal ratio of 90% or more (almost completely withered)) | 5 (Herbicidal ratio of 90% or more (almost completely withered)) | 2 (Herbicidal ratio of 20% or higher and lower than 40%) | 1 (Herbicidal ratio of 5% or higher and lower than 20%) | 0 (Herbicidal ratio of 5% or lower (almost no effect)) | 5 (Herbicidal ratio of 90% or more (almost completely withered)) | 4 (Herbicidal ratio of 70% or higher and lower than 90%) | 5 (Herbicidal ratio of 90% or more (almost completely withered)) | 5 (Herbicidal ratio of 90% or more (almost completely withered)) | 5 (Herbicidal ratio of 90% or more (almost completely withered)) | 5 (Herbicidal ratio of 90% or more (almost completely withered)) | 5 (Herbicidal ratio of 90% or more (almost completely withered)) | 5 (Herbicidal ratio of 90% or more (almost completely withered)) | 5 (Herbicidal ratio of 90% or more (almost completely withered)) | 4 (Herbicidal ratio of 70% or higher and lower than 90%) | 5 (Herbicidal ratio of 90% or more (almost completely withered)) | 5 (Herbicidal ratio of 90% or more (almost completely withered)) | 5 (Herbicidal ratio of 90% or more (almost completely withered)) | Herbicidal effect grade, M: Abutilon theophrasti [21]: 5 (Herbicidal ratio of 90% or more (almost completely withered)); Effect on crop grade, c: corn [22]: 5 (Herbicidal ratio of 90% or more (almost completely withered))
CON=C(C)CC1CC(OC(=O)N2CCOCC2)=C(c2c(C)cc(-c3ccc(F)c(Cl)c3)cc2C)C1=O (stereo not drawn) [6-093] | 5 (Herbicidal ratio of 90% or more (almost completely withered)) | 5 (Herbicidal ratio of 90% or more (almost completely withered)) | 5 (Herbicidal ratio of 90% or more (almost completely withered)) | 5 (Herbicidal ratio of 90% or more (almost completely withered)) | 3 (Herbicidal ratio of 40% or higher and lower than 70%) | 0 (Herbicidal ratio of 5% or lower (almost no effect)) | 0 (Herbicidal ratio of 5% or lower (almost no effect)) | 5 (Herbicidal ratio of 90% or more (almost completely withered)) | 0 (Herbicidal ratio of 5% or lower (almost no effect)) | 3 (Herbicidal ratio of 40% or higher and lower than 70%) | 5 (Herbicidal ratio of 90% or more (almost completely withered)) | 0 (Herbicidal ratio of 5% or lower (almost no effect)) | 5 (Herbicidal ratio of 90% or more (almost completely withered)) | 5 (Herbicidal ratio of 90% or more (almost completely withered)) | 5 (Herbicidal ratio of 90% or more (almost completely withered)) | 1 (Herbicidal ratio of 5% or higher and lower than 20%) | 2 (Herbicidal ratio of 20% or higher and lower than 40%) | 0 (Herbicidal ratio of 5% or lower (almost no effect)) | 4 (Herbicidal ratio of 70% or higher and lower than 90%) | 1 (Herbicidal ratio of 5% or higher and lower than 20%) | Herbicidal effect grade, M: Abutilon theophrasti [21]: 0 (Herbicidal ratio of 5% or lower (almost no effect)); Effect on crop grade, c: corn [22]: 0 (Herbicidal ratio of 5% or lower (almost no effect))
